# From patent US11034742B2, “Peptides with antibiotic potential against Mycobacterium tuberculosis” (LINNANE PHARMA AB, priority 2017, dated 2021)
# Positions of bridges follow the written chain, without caps; N, C: chain ends. Residues, ends and D or L forms follow the SMILES beside them.
# Test system: M. tuberculosis
SMILES,mean concentration inhibiting 99% of bacterial growth,MIC (mg/L),MIC (μM)
"CC[C@H](C)[C@@H]1NC(=O)[C@H](C)NC(=O)[C@@H]2CSSC[C@H](NC(=O)CNC(=O)[C@H](Cc3ccccc3)NC(=O)CN)C(=O)N[C@@H](CC(N)=O)C(=O)NCC(=O)N3CCC[C@H]3C(=O)N[C@@H](Cc3c[nH]c4ccccc34)C(=O)N[C@@H](CO)C(=O)N[C@@H](CCC(=O)O)C(=O)N[C@@H](CC(=O)O)C(=O)N[C@@H](CC(=O)O)C(=O)N[C@@H]([C@@H](C)CC)C(=O)N[C@@H](CCC(N)=O)C(=O)N[C@H]3CSSC[C@H](NC(=O)[C@H](C(C)C)NC(=O)[C@H](Cc4ccccc4)NC(=O)CNC(=O)CNC1=O)C(=O)N[C@@H](CCCCN)C(=O)N[C@H](C(=O)N[C@@H](Cc1ccc(O)cc1)C(=O)O)CSSC[C@H](NC(=O)[C@H](Cc1c[nH]cn1)NC(=O)[C@H](CC(N)=O)NC(=O)[C@H](Cc1c[nH]cn1)NC3=O)C(=O)N[C@@H](CCCCN)C(=O)N[C@@H](CO)C(=O)N[C@@H]([C@@H](C)CC)C(=O)N[C@@H](CCCCN)C(=O)NCC(=O)N[C@@H](Cc1ccc(O)cc1)C(=O)N[C@@H](CCCCN)C(=O)NCC(=O)NCC(=O)N[C@@H](Cc1ccc(O)cc1)C(=O)N2 [SEQ ID NO: 4] (H-GFGCNGPWSEDDIQCHNHCKSIKGYKGGYCAIGGFVCKCY-OH; disulfide 4-30, 15-37, 19-39 (inferred); N-terminus and C-terminus assumed)",6.3 µM,,
"CC[C@H](C)[C@@H]1NC(=O)[C@H](CO)NC(=O)[C@H](CCCCN)NC(=O)[C@@H]2CSSC[C@@H](C(=O)N[C@@H](Cc3ccc(O)cc3)C(=O)O)NC(=O)[C@H](CCCCN)NC(=O)[C@@H]3CSSC[C@H](NC(=O)[C@H](CCC(N)=O)NC(=O)[C@H]([C@@H](C)CC)NC(=O)[C@H](CC(=O)O)NC(=O)[C@H](CC(=O)O)NC(=O)[C@H](CCC(=O)O)NC(=O)[C@H](CO)NC(=O)[C@H](Cc4c[nH]c5ccccc45)NC(=O)[C@@H]4CCCN4C(=O)CNC(=O)[C@H](CC(N)=O)NC(=O)[C@@H](NC(=O)CNC(=O)[C@H](Cc4ccccc4)NC(=O)CN)CSSC[C@H](NC(=O)[C@H](Cc4ccc(O)cc4)NC(=O)CNC(=O)CNC(=O)[C@H](CCCCN)NC(=O)[C@H](Cc4ccc(O)cc4)NC(=O)CNC(=O)[C@H](CCCCN)NC1=O)C(=O)N[C@@H](C)C(=O)N[C@@H](CCCNC(=N)N)C(=O)NCC(=O)NCC(=O)N[C@@H](Cc1ccccc1)C(=O)N[C@@H](C(C)C)C(=O)N3)C(=O)N[C@@H](Cc1c[nH]cn1)C(=O)N[C@@H](CC(N)=O)C(=O)N[C@@H](Cc1c[nH]cn1)C(=O)N2 [SEQ ID NO: 3] (H-GFGCNGPWSEDDIQCHNHCKSIKGYKGGYCARGGFVCKCY-OH; disulfide 4-30, 15-37, 19-39 (inferred); N-terminus and C-terminus assumed)",6.3 µM,27.5 mg/L,6.8 µM
